Work on C=CC(=O)NC(C)(C)CS(=O)(=O)O yielded a solubility (mole fraction) (in 1,4-dioxane, 288.15 K) of 0.000105, a solubility (mole fraction) (in 1,4-dioxane, 293.15 K) of 0.000168 and a solubility (mole fraction) (in 1,4-dioxane, 298.15 K) of 0.000274. It also gave a solubility (mole fraction) (in 1,4-dioxane, 303.15 K) of 0.000425, a solubility (mole fraction) (in 1,4-dioxane, 308.15 K) of 0.000657 and a solubility (mole fraction) (in 1,4-dioxane, 313.15 K) of 0.000978. The solubility (mole fraction) (in 1,4-dioxane, 318.15 K) was 0.00139, the solubility (mole fraction) (in 1,4-dioxane, 323.15 K) was 0.00195 and the solubility (mole fraction) (in 1,4-dioxane, 328.15 K) was 0.00268. The solubility (mole fraction) (in acetone, 283.15 K) was 0.00625, the solubility (mole fraction) (in acetone, 288.15 K) was 0.00695 and the solubility (mole fraction) (in acetone, 293.15 K) was 0.00795. It also gave a solubility (mole fraction) (in acetone, 298.15 K) of 0.00921, a solubility (mole fraction) (in acetone, 303.15 K) of 0.0107 and a solubility (mole fraction) (in acetone, 308.15 K) of 0.0126. For the same molecule, the solubility (mole fraction) (in acetone, 313.15 K) was 0.0148, the solubility (mole fraction) (in acetone, 318.15 K) was 0.0173 and the solubility (mole fraction) (in acetone, 323.15 K) was 0.0205. The solubility (mole fraction) (in acetone, 328.15 K) was 0.0244, the solubility (mole fraction) (in acetonitrile, 283.15 K) was 3.11e-05 and the solubility (mole fraction) (in acetonitrile, 288.15 K) was 5.19e-05. For the same molecule, the solubility (mole fraction) (in acetonitrile, 293.15 K) was 9.14e-05, the solubility (mole fraction) (in acetonitrile, 298.15 K) was 0.000154 and the solubility (mole fraction) (in acetonitrile, 303.15 K) was 0.000265. For the same molecule, the solubility (mole fraction) (in acetonitrile, 308.15 K) was 0.000436, the solubility (mole fraction) (in acetonitrile, 313.15 K) was 0.000696 and the solubility (mole fraction) (in acetonitrile, 318.15 K) was 0.00107. For the same molecule, the solubility (mole fraction) (in acetonitrile, 323.15 K) was 0.0016, the solubility (mole fraction) (in acetonitrile, 328.15 K) was 0.00237 and the solubility (mole fraction) (in cyclohexane, 283.15 K) was 2.64e-05. The solubility (mole fraction) (in cyclohexane, 288.15 K) was 4.73e-05, the solubility (mole fraction) (in cyclohexane, 293.15 K) was 7.77e-05 and the solubility (mole fraction) (in cyclohexane, 298.15 K) was 0.000139. For the same molecule, the solubility (mole fraction) (in cyclohexane, 303.15 K) was 0.000229, the solubility (mole fraction) (in cyclohexane, 308.15 K) was 0.000359 and the solubility (mole fraction) (in cyclohexane, 313.15 K) was 0.000567. The solubility (mole fraction) (in cyclohexane, 318.15 K) was 0.000867, the solubility (mole fraction) (in cyclohexane, 323.15 K) was 0.00125 and the solubility (mole fraction) (in cyclohexane, 328.15 K) was 0.00179. It also gave a solubility (mole fraction) (in ethanol, 283.15 K) of 0.00721, a solubility (mole fraction) (in ethanol, 288.15 K) of 0.00794 and a solubility (mole fraction) (in ethanol, 293.15 K) of 0.00893. It also gave a solubility (mole fraction) (in ethanol, 298.15 K) of 0.0102, a solubility (mole fraction) (in ethanol, 303.15 K) of 0.0118 and a solubility (mole fraction) (in ethanol, 308.15 K) of 0.0138. It also gave a solubility (mole fraction) (in ethanol, 313.15 K) of 0.0161, a solubility (mole fraction) (in ethanol, 318.15 K) of 0.0189 and a solubility (mole fraction) (in ethanol, 323.15 K) of 0.0225. The solubility (mole fraction) (in ethanol, 328.15 K) was 0.0264, the solubility (mole fraction) (in ethyl acetate, 283.15 K) was 0.00106 and the solubility (mole fraction) (in ethyl acetate, 288.15 K) was 0.00142. The solubility (mole fraction) (in ethyl acetate, 293.15 K) was 0.00198, the solubility (mole fraction) (in ethyl acetate, 298.15 K) was 0.00262 and the solubility (mole fraction) (in ethyl acetate, 303.15 K) was 0.00338. The solubility (mole fraction) (in ethyl acetate, 308.15 K) was 0.00431, the solubility (mole fraction) (in ethyl acetate, 313.15 K) was 0.00543 and the solubility (mole fraction) (in ethyl acetate, 318.15 K) was 0.00672. The solubility (mole fraction) (in ethyl acetate, 323.15 K) was 0.00829, the solubility (mole fraction) (in ethyl acetate, 328.15 K) was 0.0103 and the solubility (mole fraction) (in ethylene glycol, 283.15 K) was 0.000463. For the same molecule, the solubility (mole fraction) (in ethylene glycol, 288.15 K) was 0.000687, the solubility (mole fraction) (in ethylene glycol, 293.15 K) was 0.00105 and the solubility (mole fraction) (in ethylene glycol, 298.15 K) was 0.00162. It also gave a solubility (mole fraction) (in ethylene glycol, 303.15 K) of 0.00237, a solubility (mole fraction) (in ethylene glycol, 308.15 K) of 0.00329 and a solubility (mole fraction) (in ethylene glycol, 313.15 K) of 0.00444. It also gave a solubility (mole fraction) (in ethylene glycol, 318.15 K) of 0.00583, a solubility (mole fraction) (in ethylene glycol, 323.15 K) of 0.00757 and a solubility (mole fraction) (in ethylene glycol, 328.15 K) of 0.00972. The solubility (mole fraction) (in isobutanol, 283.15 K) was 0.00229, the solubility (mole fraction) (in isobutanol, 288.15 K) was 0.00267 and the solubility (mole fraction) (in isobutanol, 293.15 K) was 0.00322. For the same molecule, the solubility (mole fraction) (in isobutanol, 298.15 K) was 0.00394, the solubility (mole fraction) (in isobutanol, 303.15 K) was 0.00485 and the solubility (mole fraction) (in isobutanol, 308.15 K) was 0.00596. The solubility (mole fraction) (in isobutanol, 313.15 K) was 0.00728, the solubility (mole fraction) (in isobutanol, 318.15 K) was 0.00885 and the solubility (mole fraction) (in isobutanol, 323.15 K) was 0.0107. It also gave a solubility (mole fraction) (in isobutanol, 328.15 K) of 0.0131, a solubility (mole fraction) (in isopropanol, 283.15 K) of 0.000208 and a solubility (mole fraction) (in isopropanol, 288.15 K) of 0.000333. For the same molecule, the solubility (mole fraction) (in isopropanol, 293.15 K) was 0.00056, the solubility (mole fraction) (in isopropanol, 298.15 K) was 0.000882 and the solubility (mole fraction) (in isopropanol, 303.15 K) was 0.00129. It also gave a solubility (mole fraction) (in isopropanol, 308.15 K) of 0.00186, a solubility (mole fraction) (in isopropanol, 313.15 K) of 0.00266 and a solubility (mole fraction) (in isopropanol, 318.15 K) of 0.00373. For the same molecule, the solubility (mole fraction) (in isopropanol, 323.15 K) was 0.00508, the solubility (mole fraction) (in isopropanol, 328.15 K) was 0.00671 and the solubility (mole fraction) (in methanol, 283.15 K) was 0.00916. It also gave a solubility (mole fraction) (in methanol, 288.15 K) of 0.0103, a solubility (mole fraction) (in methanol, 293.15 K) of 0.0117 and a solubility (mole fraction) (in methanol, 298.15 K) of 0.0138. For the same molecule, the solubility (mole fraction) (in methanol, 303.15 K) was 0.0163, the solubility (mole fraction) (in methanol, 308.15 K) was 0.0193 and the solubility (mole fraction) (in methanol, 313.15 K) was 0.0227. The solubility (mole fraction) (in methanol, 318.15 K) was 0.0268, the solubility (mole fraction) (in methanol, 323.15 K) was 0.0322 and the solubility (mole fraction) (in methanol, 328.15 K) was 0.0383. It also gave a solubility (mole fraction) (in n-butanol, 283.15 K) of 0.00359, a solubility (mole fraction) (in n-butanol, 288.15 K) of 0.00403 and a solubility (mole fraction) (in n-butanol, 293.15 K) of 0.00468. The solubility (mole fraction) (in n-butanol, 298.15 K) was 0.0055, the solubility (mole fraction) (in n-butanol, 303.15 K) was 0.00649 and the solubility (mole fraction) (in n-butanol, 308.15 K) was 0.00773. It also gave a solubility (mole fraction) (in n-butanol, 313.15 K) of 0.00922, a solubility (mole fraction) (in n-butanol, 318.15 K) of 0.011 and a solubility (mole fraction) (in n-butanol, 323.15 K) of 0.0133. It also gave a solubility (mole fraction) (in n-butanol, 328.15 K) of 0.0159, a solubility (mole fraction) (in n-heptanol, 283.15 K) of 0.00327 and a solubility (mole fraction) (in n-heptanol, 288.15 K) of 0.00369. For the same molecule, the solubility (mole fraction) (in n-heptanol, 293.15 K) was 0.00426, the solubility (mole fraction) (in n-heptanol, 298.15 K) was 0.00496 and the solubility (mole fraction) (in n-heptanol, 303.15 K) was 0.00582. The solubility (mole fraction) (in n-heptanol, 308.15 K) was 0.0069, the solubility (mole fraction) (in n-heptanol, 313.15 K) was 0.00824 and the solubility (mole fraction) (in n-heptanol, 318.15 K) was 0.00987. The solubility (mole fraction) (in n-heptanol, 323.15 K) was 0.0118, the solubility (mole fraction) (in n-heptanol, 328.15 K) was 0.0145 and the solubility (mole fraction) (in n-propanol, 283.15 K) was 0.00399. For the same molecule, the solubility (mole fraction) (in n-propanol, 288.15 K) was 0.00463, the solubility (mole fraction) (in n-propanol, 293.15 K) was 0.00542 and the solubility (mole fraction) (in n-propanol, 298.15 K) was 0.00646. It also gave a solubility (mole fraction) (in n-propanol, 303.15 K) of 0.00764, a solubility (mole fraction) (in n-propanol, 308.15 K) of 0.0091 and a solubility (mole fraction) (in n-propanol, 313.15 K) of 0.0108. It also gave a solubility (mole fraction) (in n-propanol, 318.15 K) of 0.0129, a solubility (mole fraction) (in n-propanol, 325.15 K) of 0.0158 and a solubility (mole fraction) (in n-propanol, 328.15 K) of 0.0188.
